1 molecule from ChEMBL document CHEMBL3217712, “Improved biodistribution, pharmacokinetics and photodynamic efficacy using a new photostable sulfonamide bacteriochlorin” (Medchemcomm, 2012) can be followed below.

Each structure is given as a SMILES string.

The experiment deals with S91. Nature of the experiment: Photodynamic efficacy against mouse Cloudman S91 cells allografted in DBA mouse assessed as time of tumor growth delay at 2 mg/kg, iv followed by irradiated with 70 mW cm'-2 diode laser light for 25 mins. In kind it is functional.

Consider `O=S(=O)(O)c1ccc(Cl)c(-c2c3nc(c(-c4cc(S(=O)(=O)O)ccc4Cl)c4ccc([nH]4)c(-c4cc(S(=O)(=O)O)ccc4Cl)c4nc(c(-c5cc(S(=O)(=O)O)ccc5Cl)c5ccc2[nH]5)CC4)C=C3)c1`, for which the Time came to 29 days.
